Reference: ChEMBL document CHEMBL1159220, “Additional dolabellane diterpenes from the Caribbean gorgonian octocoral Eunicea laciniata” (J Nat Prod, 1995)
Values after ≈ are worked out from the molar mass of the structure shown.

tested on: HeLa; assay: Cytotoxicity against human HeLa cells; assay type: functional, cell-based

Structure (SMILES)	IC50 [mg/L]
C/C1=C/C(=O)[C@]2(C)CC(=O)[C@H](C(C)C)[C@H]2CC/C(C)=C\CC1 [EDUDIONE]	> 100
C=C(C)[C@@]1(O)CC[C@@]2(C)C/C=C(\C)CC/C=C(\C)CC[C@@H]21 [EDUNOL]	25 (≈ 86.7 µM)
CC(C)=C1CC[C@@]2(C)C(=O)C[C@H](C)CC/C=C(\C)CC[C@H]12 [EDUNONE]	25 (≈ 86.7 µM)
CC(C)=C1CC[C@@]2(C)C(=O)/C=C(/C)CC/C=C(/C)CC[C@H]12 [EDUENONE]	50 (≈ 175 µM)
